{"source": "patent US11458198B2", "about": "“HPV epitopes targeted by T cells infiltrating cervical malignancies for use in vaccines” (Academisch Ziekenhuis Leiden H.O.D.N. LUMC, priority 2007, dated 2022)", "assay_type_in_all_cases": "cell-based, human", "key": {"[1]": {"tested_on": "skin test infiltrating lymphocytes", "assay": "Intracellular cytokine staining of T cell cultures from positive skin reaction sites", "source_text": "Skin tests, based on Delayed Type Hypersensitivity reactions (DTH), can be used as a sensitive and simple method for in vivo measurement of HPV-specific cellular immune responses (Hopfl, 2000; Hopfl, 1991). The skin test preparations consisted of 8 pools of long clinical-grade synthetic peptides spanning the whole HPV 16 E6 and E7 protein and the most immunogenic regions of HPV 16 E2 protein (de Jong, 2004). These clinical grade peptides were produced in the interdivisional GMP-Facility of the LUMC. Each pool of the skin test consisted of 2 or 3 synthetic peptides, indicated by the first and last amino acid of the region in the protein covered by the peptides. Pool 1: E231-60, E246-75, Pool 2: E2301-330, E2316-345, Pool 3: E61-31, E619-50 (SEQ ID NO: 28), Pool 4: E641-65 (SEQ ID NO: 29), E655-80 (SEQ ID NO: 30), E671-95 (SEQ ID NO: 31), Pool 5: E685-109 (SEQ ID NO: 32), E691-122 (SEQ ID NO: 33), Pool 6: E6109-140 (SEQ ID NO: 34), E6127-158 (SEQ ID NO: 35), Pool 7: E71-35 (SEQ ID NO: 36), E722-56 (SEQ ID NO: 37), Pool 8: E743-77 (SEQ ID NO: 38), E764-98 (SEQ ID NO: 39). Pool 3 comprises Seq ID 5, 22 and 23. Pool 4 comprises Seq IDs 7-9. Pool 5 comprises Seq IDs 11 and 12. Pool 6 comprises Seq IDs 13, 14, 24 and 25. Pool 7 comprises Seq ID 15 and 26. Pool 8 comprises Seq IDs 16 and 17. Per peptide pool 0.05 ml of 0.2 mg/ml peptides in 16% DMSO in 20 mM isotonic phosphate buffer (10 μg/peptide) was injected intracutaneously. The pools of peptides and a negative control (dissolvent only) were injected separately at individual skin test sites of the upper arm. Skin test sites were inspected at least three times, at 72 hours and 7 days after injection (Hopfl) of the peptides and at 3 weeks following the first report of a very late skin reaction in one of the first healthy subjects. […]\nThe specificity and character of the T cell cultures derived from positive skin reaction sites was tested by ICS as reported previously (de Jong, 2005). […] After incubation at 4° C., the cells were washed, fixed with 1% paraformaldehyde and analyzed by flow cytrometry (FACSscan, BD Biosciences)"}, "[2]": {"tested_on": "HPV-specific T cell cultures", "assay": "Intracellular cytokine staining for IFNγ, type of T cell responding", "conditions": "TIL culture of C265", "description": "(§1) Enumeration of IFNγ producing T cells as measured by intracellular cytokine staining was performed as described earlier (de Jong et al. 2005). Briefly, APC were loaded with cognate peptide or recombinant protein and incubated with T cell cultures. After 1 hour of incubation 10 μg/ml Brefeldin A (Sigma) was added and incubated overnight. Hereafter the cells were fixed with 4% paraformaldehyde (Sigma) and permeabilized with 0.1% Saponin. The samples were subsequently stained with CD4-APC, CD8-PerCP and IFNγ-PE and analyzed by flow cytometry. The minimal peptide recognized by CD8 T cells was analysed by IFNγ ELISPOT (van der Burg et al. 2001, Welters et al. 2006, de Jong et al. 2002). CD8 T cell lines were seeded in triplicate wells at a density of 2×104 on a Multiscreen 96-well plate (Millipore, Etten-Leur, The Netherlands) coated with an IFNγ catch antibody (Mabtech. Nacha, Sweden). The microcultures were stimulated with 5 μg/ml 10-mer peptides and incubated overnight. Analysis of HLA restriction of CD8 T cells was performed using 5 μg/ml 10-mer peptide pulsed PBMC or B-LCL co-cultured with equal numbers of T cells. IFNγ specific spots were stained according to the instructions of the manufacturer (Mabtech). The number of spots was analysed on a fully automated computer assisted video imaging system (BIOSYS)."}, "HPV-specific T cells": {"tested_on": "HPV-specific T cells", "assay": "Fine specificity with single peptides (proliferation and IFNγ production)", "conditions": "patients C265, C334, C284, C228 respectively", "description": "T cell cultures (25,000-50,000 cells/well) were tested on pulsed autologous monocytes or irradiated autologous EBVs for the recognition of HPV16 and 18 E6 and E7 peptides (5 μg/ml) and protein (10 μg/ml) in triplicate in a 3 day proliferation assay. After 48 hours supernatant was harvested and stored at −20° C. for cytokine analysis. During the last 16 hours of culture 0.5 μCi/well [^3H]thymidine was added to measure proliferation (van der Burg et al. 2001). Antigen specific IFNγ production was measured by ELISA as described earlier (van der Burg et al. 1999).\nFollowing the evaluation of HPV-specific reactivity, the 19 responding T cell lines were expanded by stimulation with cognate peptide, cytokine mix and feeder cells. Fifteen of these HPV-specific cultures could be sufficiently expanded for further analysis. The fine specificity of the HPV-specific T cells was determined in short-term stimulation assays using single peptides. Five cultures recognized 2 or more distinct peptides, whereas the other 10 cultures recognized a single peptide (FIG. 1B, Table 1). To assess the type of T cell that responded to antigenic stimulation, the T cell cultures were stimulated with their cognate peptide and protein antigens and the response was analyzed by intra-cellular IFNγ staining (FIG. 2). The majority of the TIL cultures contained HPV-specific CD4+ infiltrating T lymphocytes (n=13 patients, 13 different peptides recognized), whereas HPV-specific CD8^+ T cells infiltrating lymphocytes were found in 6 cultures. In 9 of the HPV-specific T cell lines only a CD4^+ T cell response was detected, in 4 T cell lines both CD4^+ T cells and CD8^+ T cells reacted and in 2 T cell lines only a CD8 T cells response was detected (Table 1, FIG. 2)."}, "[3]": {"tested_on": "HPV-specific CD4+ and CD8+ T cells", "assay": "HLA restriction and minimal epitope (blocking antibodies, partially HLA matched APC, IFNγ ELISPOT)", "conditions": "HLA-A*0201-restricted tumor-infiltrating CD8+ T cells", "description": "MHC class II blocking experiments were performed as reported before using murine monoclonal antibodies against HLA-DR (B8.11.2), HLA-DQ (SPV.L3) and HLA-DP (B7/21) (van der Burg et al. 1999). Peptide-pulsed APC were incubated with anti-MHC class II antibodies for 2 hours prior to the addition of T cells.\nas §1, with “Analysis of HLA restriction of CD8 T cells was performed using 5 μg/ml 10-mer peptide pulsed PBMC or B-LCL co-cultured with equal numbers of T cells. IFNγ specific spots were stained according to the instructions of the manufacturer (Mabtech).” left out, “(BIOSYS). […]” for “(BIOSYS).”"}}}
{"substance": "E6127-158: HPV16 E6 amino acids 127-158, clinical-grade long peptide (DKKQRFHNIRGRWTGRCMSCCRSSRTRRETQL; Human papillomavirus type 16)", "values": [{"measurement": "response of CD8+ T cells isolated from the biopsy", "setting": "[1]; HD2, biopsy of pool 6", "result": "responded"}]}
{"substance": "HPV16 E6 41-62: 22-mer peptide, amino acids 41-62 of HPV16 E6 (KQQLLRREVYDFAFRDLCIVYR; UniProt P03126 41-62, looked up, fragment)", "values": [{"measurement": "type of T cell responding, intracellular IFNγ (FIG. 2)", "setting": "[2]", "result": "CD4^+ and CD8^+ T cell response"}]}
{"substance": "HPV16 E6109-140: HPV16 E6 amino acids 109-140, clinical-grade long peptide (RCINCQKPLCPEEKQRHLDKKQRFHNIRGRWT; Human papillomavirus type 16)", "values": [{"measurement": "response of CD8+ T cells isolated from the biopsy", "setting": "[1]; HD2, biopsy of pool 6", "result": "responded"}]}
{"substance": "HPV16E6 peptide 137-158: 22-mer peptide, amino acids 137-158 of HPV16 E6 (GRWTGRCMSCCRSSRTRRETQL; UniProt P03126 137-158, looked up, fragment)", "values": [{"measurement": "response of bulk culture to single peptide, proliferation and IFNγ production (FIG. 1B)", "setting": "HPV-specific T cells", "result": "responded"}]}
{"substance": "HPV16E6.37-68: amino acids 37-68 of HPV16 E6 protein (CVYCKQQLLRREVYDFAFRDLCIVYRDGNPYA; Human papillomavirus type 16)", "values": [{"measurement": "response of CD8+ T cells isolated from the biopsy", "setting": "[1]; subjects HD15 and HD16", "result": "responded"}, {"measurement": "response of bulk culture to single peptide, proliferation and IFNγ production (FIG. 1B)", "setting": "HPV-specific T cells", "result": "responded"}]}
{"substance": "HPV16E7 peptide 71-92: 22-mer peptide, amino acids 71-92 of HPV16 E7 (STHVDIRTLEDLLMGTLGIVCP; UniProt P03129 71-92, looked up, fragment)", "values": [{"measurement": "response of bulk culture to single peptide, proliferation and IFNγ production (FIG. 1B)", "setting": "HPV-specific T cells", "result": "responded"}]}
{"substance": "HPV16E7.11-19: amino acids 11-19 of HPV16 E7 protein (IVLHLEPQN; Human papillomavirus type 16)", "values": [{"measurement": "reactivity of CD8+ T cells compared with HPV16 E7.11-20", "setting": "[3]", "result": "stronger reactivity"}]}
{"substance": "HPV18E7.21-42: amino acids 21-42 of HPV18 E7 protein (IPVDLLCHEQLSDSEEENDEID; Human papillomavirus type 18)", "values": [{"measurement": "response of bulk culture to single peptide, proliferation and IFNγ production (FIG. 1B)", "setting": "HPV-specific T cells", "result": "responded"}]}
